According to patent publication US20130053381A1, “2,4-DIOXO-1,4-DIHYDRO-2H-QUINAZOLIN-3-YL-SULFONAMIDE DERIVATIVES” (NOVARTIS AG, priority 2010, published 2013):

Each molecule was assayed on OF1 mice (assay: Maximal electroshock test (MES Test)). Conditions: Mus musculus, po; 50 mg/kg, p.o., pre-treatment time −0.5 h (footnote d); read-out: %-Protection.
Type: in vivo
Procedure, shortened: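 Compound given p.o. (typically 50 mg/kg) 1 h before tonic-clonic convulsions were induced via temporal electrodes (50 Hz, 18 mA, 0.2 s); seizure lasting 3 s or less counted as protection. Read-out is percent protected of five mice per condition; ED50 calculated, blood exposure sampled after shock.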

| SMILES | responders at 50 mg/kg |
| --- | --- |
| CCC(=O)N(n1c(=O)[nH]c2cc(C(F)(F)F)c([C@H]3CCCO3)cc2c1=O)S(C)(=O)=O [Example 10.02, N—((R)-2,4-Dioxo-6-tetrahydro-furan-2-yl-7-trifluoromethyl-1,4-dihydro-2H-quinazolin-3-yl)-N-propionyl-methanesulfonamide] | 60% |

Same assay, conditions: Mus musculus, po; 50 mg/kg, p.o., pre-treatment time −1 h; read-out: %-Protection

| SMILES | responders at 50 mg/kg |
| --- | --- |
| CC(C)COC(=O)N(n1c(=O)[nH]c2cc(C(F)(F)F)c(-c3ccnn3C)cc2c1=O)S(C)(=O)=O [Example 1.06, Methanesulfonyl-[6-(2-methyl-2H-pyrazol-3-yl)-2,4-dioxo-7-trifluoromethyl-1,4-dihydro-2H-quinazolin-3-yl]-carbamic acid isobutyl ester] | 60% |
| CCCCC(=O)N(n1c(=O)[nH]c2cc(C(F)(F)F)c(C(CC)OC)cc2c1=O)S(C)(=O)=O (stereo not drawn) [Example 11.15, N-[6-(1-methoxy-propyl)-2,4-dioxo-7-trifluoromethyl-1,4-dihydro-2H-quinazolin-3-yl]-N-pentanoyl-methanesulfonamide] | 100% |
| CSCCC(=O)N(n1c(=O)[nH]c2cc(C(C)C)c(-c3ccnn3C)cc2c1=O)S(C)(=O)=O [Example 3.18, N-[7-Isopropyl-6-(2-methyl-2H-pyrazol-3-yl)-2,4-dioxo-1,4-dihydro-2H-quinazolin-3-yl]-N-(3-methylsulfanyl-propionyl)-methanesulfonamide] | 100% |
| CSCCC(=O)N(n1c(=O)[nH]c2cc(C(F)(F)F)c(-c3ccnn3C(C)C)cc2c1=O)S(C)(=O)=O [Example 5.13, N-[6-(2-Isopropyl-2H-pyrazol-3-yl)-2,4-dioxo-7-trifluoromethyl-1,4-dihydro-2H-quinazolin-3-yl]-N-(3-methylsulfanyl-propionyl)-methanesulfonamide] | 40% |
| CCOC(=O)N(n1c(=O)[nH]c2cc(C(F)(F)F)c(C(CC)OC)cc2c1=O)S(C)(=O)=O (stereo not drawn) [Example 11.03, Methanesulfonyl-[6-(1-methoxy-propyl)-2,4-dioxo-7-trifluoromethyl-1,4-dihydro-2H-quinazolin-3-yl]-carbamic acid ethyl ester] | 80% |
| CC(=O)n1c(=O)n(N(C(=O)OCc2ccccc2)S(C)(=O)=O)c(=O)c2cc(-c3ccnn3C)c(C(C)C)cc21 [Example 3.27, [1-Acetyl-7-isopropyl-6-(2-methyl-2H-pyrazol-3-yl)-2,4-dioxo-1,4-dihydro-2H-quinazolin-3-yl]-methanesulfonyl-carbamic acid benzyl ester] | 100% |
| CCC(O)c1cc2c(=O)n(N(C(=O)C(C)C)S(C)(=O)=O)c(=O)[nH]c2cc1C(F)(F)F (stereo not drawn) [Example 12.04, N-[6-(1-Hydroxy-propyl)-2,4-dioxo-7-trifluoromethyl-1,4-dihydro-2H-quinazolin-3-yl]-N-isobutyryl-methanesulfonamide] | 40% |
| CCCC(=O)N(n1c(=O)[nH]c2cc(C(F)(F)F)c(-c3ccnn3C)cc2c1=O)S(C)(=O)=O [Example 1.03, N-Butyryl-N-[6-(2-methyl-2H-pyrazol-3-yl)-2,4-dioxo-7-trifluoromethyl-1,4-dihydro-2H-quinazolin-3-yl]-methanesulfonamide] | 100% |
| COC(=O)N(n1c(=O)[nH]c2cc(C(F)(F)F)c(-n3cccc3)cc2c1=O)S(C)(=O)=O [Example 8.04, (2,4-Dioxo-6-pyrrol-1-yl-7-trifluoromethyl-1,4-dihydro-2H-quinazolin-3-yl)-methanesulfonyl-carbamic acid methyl ester] | 20% |
| CCC(OC)c1cc2c(=O)n(N(C(C)=O)S(C)(=O)=O)c(=O)[nH]c2cc1C(F)(F)F (stereo not drawn) [Example 11.08, N-Acetyl-N-[6-(1-methoxy-propyl)-2,4-dioxo-7-trifluoromethyl-1,4-dihydro-2H-quinazolin-3-yl]-methanesulfonamide] | 80% |
| CC(C)c1cc2[nH]c(=O)n(N(C(=O)CN3CCOCC3)S(C)(=O)=O)c(=O)c2cc1-c1ccnn1C [Example 3.31, N-[7-Isopropyl-6-(2-methyl-2H-pyrazol-3-yl)-2,4-dioxo-1,4-dihydro-2H-quinazolin-3-yl]-N-(2-morpholin-4-yl-acetyl)-methanesulfonamide] | 100% |
| CCCCC(=O)N(n1c(=O)[nH]c2cc(C(F)(F)F)c(-n3ccnc3)cc2c1=O)S(C)(=O)=O [Example 4.02, N-(6-Imidazol-1-yl-2,4-dioxo-7-trifluoromethyl-1,4-dihydro-2H-quinazolin-3-yl)-N-pentanoyl-methanesulfonamide] | 100% |
| CCC(=O)N(n1c(=O)[nH]c2cc(C(F)(F)F)c([C@H]3CCCO3)cc2c1=O)S(C)(=O)=O [Example 10.02, N—((R)-2,4-Dioxo-6-tetrahydro-furan-2-yl-7-trifluoromethyl-1,4-dihydro-2H-quinazolin-3-yl)-N-propionyl-methanesulfonamide] | 60% |
| CCCCOC(=O)N(n1c(=O)[nH]c2cc(C(F)(F)F)c(-c3ccnn3CC)cc2c1=O)S(C)(=O)=O [Example 15.03, [6-(2-Ethyl-2H-pyrazol-3-yl)-2,4-dioxo-7-trifluoromethyl-1,4-dihydro-2H-quinazolin-3-yl]-methanesulfonyl-carbamic acid butyl ester] | 20% |
| CCCCCOC(=O)N(n1c(=O)[nH]c2cc(CC)c(-c3ccnn3C)cc2c1=O)S(C)(=O)=O [Example 2.13, Methanesulfonyl-[7-ethyl-6-(2-methyl-2H-pyrazol-3-yl)-2,4-dioxo-1,4-dihydro-2H-quinazolin-3-yl]-carbamic acid pentyl ester] | 20% |
| CCCCCC(=O)N(n1c(=O)[nH]c2cc(C(F)(F)F)c(C(O)CC)cc2c1=O)S(C)(=O)=O (stereo not drawn) [Example 12.01, N-Hexanoyl-N-[6-(1-hydroxy-propyl)-2,4-dioxo-7-trifluoromethyl-1,4-dihydro-2H-quinazolin-3-yl]-methanesulfonamide] | 40% |
| COC(=O)n1c(=O)n(N(C(C)=O)S(C)(=O)=O)c(=O)c2cc(-c3ccnn3C)c(C(C)C)cc21 [Example 3.36, 3-(Acetyl-methanesulfonyl-amino)-7-isopropyl-6-(2-methyl-2H-pyrazol-3-yl)-2,4-dioxo-3,4-dihydro-2H-quinazoline-1-carboxylic acid methyl ester] | 100% |
| CCCOC(=O)N(n1c(=O)[nH]c2cc(C(F)F)c(-c3ccnn3C(C)C)cc2c1=O)S(C)(=O)=O [Example 6.04, [7-Difluoromethyl-6-(2-isopropyl-2H-pyrazol-3-yl)-2,4-dioxo-1,4-dihydro-2H-quinazolin-3-yl]-methanesulfonyl-carbamic acid propyl ester] | 20% |
| CCOC(=O)N(n1c(=O)c2cc(-c3ccnn3C)c(C(C)C)cc2n(C(=O)OCC)c1=O)S(C)(=O)=O [Example 3.33] | 80% |
| CC(C)C(=O)N(n1c(=O)[nH]c2cc(C(F)(F)F)c(-c3ccnn3C)cc2c1=O)S(C)(=O)=O [Example 1.02, N-Isobutyryl-N-[6-(2-methyl-2H-pyrazol-3-yl)-2,4-dioxo-7-trifluoromethyl-1,4-dihydro-2H-quinazolin-3-yl]-methanesulfonamide] | 100% |
| CCc1cc2[nH]c(=O)n(N(C(C)=O)S(C)(=O)=O)c(=O)c2cc1-c1ccnn1C [Example 2.01, N-Acetyl-N-[7-ethyl-6-(2-methyl-2H-pyrazol-3-yl)-2,4-dioxo-1,4-dihydro-2H-quinazolin-3-yl]-methanesulfonamide] | 100% |
| CS(=O)(=O)N(C(=O)C1CCCC1)n1c(=O)[nH]c2cc(C(F)(F)F)c(-n3ccnc3)cc2c1=O [Example 4.07] | 40% |
| CCCC(=O)N(n1c(=O)[nH]c2cc(C(F)F)c(-c3ccnn3C(C)C)cc2c1=O)S(C)(=O)=O [Example 6.02, N-Butyryl-N-[7-difluoromethyl-6-(2-isopropyl-2H-pyrazol-3-yl)-2,4-dioxo-1,4-dihydro-2H-quinazolin-3-yl]-methanesulfonamide] | 40% |
| CC(=O)N(n1c(=O)[nH]c2cc(C(F)(F)F)c(-c3ccnn3C(C)C)cc2c1=O)S(C)(=O)=O [Example 5.01, N-Acetyl-N-[6-(2-isopropyl-2H-pyrazol-3-yl)-2,4-dioxo-7-trifluoromethyl-1,4-dihydro-2H-quinazolin-3-yl]-methanesulfonamide] | 60% |
| CCn1nccc1-c1cc2c(=O)n(N(C(=O)OC)S(C)(=O)=O)c(=O)[nH]c2cc1C(F)(F)F [Example 15.01, [6-(2-Ethyl-2H-pyrazol-3-yl)-2,4-dioxo-7-trifluoromethyl-1,4-dihydro-2H-quinazolin-3-yl]-methanesulfonyl-carbamic acid methyl ester] | 40% |
| CCCOC(=O)N(n1c(=O)[nH]c2cc(C(F)(F)F)c(C(CC)OC)cc2c1=O)S(C)(=O)=O (stereo not drawn) [Example 11.04, Methanesulfonyl-[6-(1-methoxy-propyl)-2,4-dioxo-7-trifluoromethyl-1,4-dihydro-2H-quinazolin-3-yl]-carbamic acid propyl ester] | 20% |
| CCCCCC(=O)N(n1c(=O)[nH]c2cc(C(F)(F)F)c(-c3ccnn3C)cc2c1=O)S(C)(=O)=O [Example 1.04, N-Hexanoyl-N-[6-(2-methyl-2H-pyrazol-3-yl)-2,4-dioxo-7-trifluoromethyl-1,4-dihydro-2H-quinazolin-3-yl]-methanesulfonamide] | 80% |

Same assay, conditions: Mus musculus, po; Dose: 25 mg/kg, p.o. (footnote b), pre-treatment time −1 h; read-out: %-Protection

| SMILES | responders at 25 mg/kg |
| --- | --- |
| CCc1cc2[nH]c(=O)n(N(C(=O)OCC(C)C)S(C)(=O)=O)c(=O)c2cc1-c1ccnn1C [Example 2.04, Methanesulfonyl-[7-ethyl-6-(2-methyl-2H-pyrazol-3-yl)-2,4-dioxo-1,4-dihydro-2H-quinazolin-3-yl]-carbamic acid isobutyl ester] | 80% |
| CCCOC(=O)N(n1c(=O)[nH]c2cc(C(F)F)c(-c3ccnn3C(C)C)cc2c1=O)S(C)(=O)=O [Example 6.04, [7-Difluoromethyl-6-(2-isopropyl-2H-pyrazol-3-yl)-2,4-dioxo-1,4-dihydro-2H-quinazolin-3-yl]-methanesulfonyl-carbamic acid propyl ester] | 0% |
| CCCC(=O)N(n1c(=O)[nH]c2cc(C(F)F)c(-c3ccnn3C(C)C)cc2c1=O)S(C)(=O)=O [Example 6.02, N-Butyryl-N-[7-difluoromethyl-6-(2-isopropyl-2H-pyrazol-3-yl)-2,4-dioxo-1,4-dihydro-2H-quinazolin-3-yl]-methanesulfonamide] | 0% |

Same assay, conditions: Mus musculus; dose of up to 50 mg/kg, p.o., 1 hour prior to induction of convulsions; read-out: %-Protection

| SMILES | responders at 50 mg/kg |
| --- | --- |
| CC(C)CC(=O)N(n1c(=O)[nH]c2cc(C(C)C)c(-c3ccnn3C)cc2c1=O)S(C)(=O)=O [N-[7-Isopropyl-6-(2-methyl-2H-pyrazol-3-yl)-2,4-dioxo-1,4-dihydro-2H-quinazolin-3-yl]-N-(3-methyl-butyryl)-methanesulfonamide] | 0% |

Same assay, conditions: single 50 mg/kg p.o. dose; 30 min after treatment, MES Test

| SMILES | %-seizure protection |
| --- | --- |
| CCCCC(=O)N(n1c(=O)[nH]c2cc(C(F)(F)F)c(-n3ccnc3)cc2c1=O)S(C)(=O)=O [Example 4.02, N-(6-Imidazol-1-yl-2,4-dioxo-7-trifluoromethyl-1,4-dihydro-2H-quinazolin-3-yl)-N-pentanoyl-methanesulfonamide] | 100% |
